The values below come from patent US20110190263A1, “COMPOUNDS AND COMPOSITIONS AS MODULATORS OF GPR119 ACTIVITY” (IRM LLC, priority 2008, published 2011).

Structures are written as SMILES.

The assay has as its target T1, human GPR119 (Homo sapiens, UniProt Q8TDV5).
T1 construct: expressed in transfected cells
T1 sequence (Q8TDV5 1-335): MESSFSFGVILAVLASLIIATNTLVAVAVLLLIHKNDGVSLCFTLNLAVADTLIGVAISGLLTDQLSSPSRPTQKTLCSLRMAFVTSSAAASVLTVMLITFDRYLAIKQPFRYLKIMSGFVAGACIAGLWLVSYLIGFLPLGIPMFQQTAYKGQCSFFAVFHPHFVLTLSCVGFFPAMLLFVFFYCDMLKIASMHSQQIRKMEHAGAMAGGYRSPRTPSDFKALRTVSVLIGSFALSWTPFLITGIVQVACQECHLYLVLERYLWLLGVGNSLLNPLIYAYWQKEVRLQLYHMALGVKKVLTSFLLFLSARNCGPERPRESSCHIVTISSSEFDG
Kind of assay: Cyclic AMP assay in stable cell line (Flp-In-CHO-hGPR119, HTRF). The following applies: Flp-In-CHO-hGPR119 cells, intracellular cAMP by HTRF, 1 mM IBMX, 37° C. for 30 minutes. It is filed as cell-based. On the procedure:
Flp-In-CHO cells (Invitrogen, Cat.# R758-07) are maintained in Ham's F12 medium supplemented with 10% fetal bovine serum, 1% antibiotic mixture and 2 mM L-glutamine. The cells are transfected with a DNA mixture containing human GPR119 in pcDNA5/FRT vector and the pOG44 vector (1:9) using Fugene6 (Roche), according to the manufacturer's instruction. After 48 hours, the medium is changed to medium supplemented with 400 μg/ml hygromycin B to initiate the selection of stably transfected cells.
To test the activity of compounds of the invention, Flp-In-CHO-hGPR119 cells are harvested and resuspended in DMEM plus 3% lipid-depleted fetal bovine serum. Forth μl of cells are plated in 384 well plates at a density of 15,000 cells/well. IBMX (3-isobutyl-1-methyl-xanthine) is added to the cells to a final concentration of 1 mM, followed by the addition of 500 nl of the compound to be tested. The cells are incubated at 37° C. for 30 minutes. Equal volume (20 μl) of the HTRF reagents, anti-cAMP-Cryptate and cAMP-XL665, are added to the cells. The plates are incubated at room temperature for 1 hour and read on a HTRF reader according to the manufacturer's instruction.

As a reminder, the EC50 is the concentration that produces a half-maximal response. Turning to `CCc1cnc(N2CCC(C(C)OC3CN(c4ncc5c(n4)CCN(S(C)(=O)=O)C5)C3)CC2)nc1` (racemic) [Example H1, (±)-2-(3-(1-(1-(5-Ethylpyrimidin-2-yl)piperidin-4-yl)ethoxy)azetidin-1-yl)-6-(methylsulfonyl)-5,6,7,8-tetrahydropyrido[4,3-d]pyrimidine], the EC50 came to 183 nM.
`CO[C@H]1CN(C(=O)OC2(C)CC2)CC[C@H]1COC1CN(c2ncc3c(n2)CCN(S(C)(=O)=O)C3)C1` (racemic) [Example J1, (±)-(3R,45)-1-Methylcyclopropyl 3-methoxy-4-((1-(6-(methylsulfonyl)-5,6,7,8-tetrahydropyrido[4,3-d]pyrimidin-2-yl)azetidin-3-yloxy)methyl)piperidine-1-carboxylate]: it took 711 nM to reach a half-maximal effect (EC50).
In the case of `CC(C)OC(=O)N1CCC(Oc2nccc3c2CCN(S(C)(=O)=O)C3)CC1` [Example A4, isopropyl 4-(6-(methylsulfonyl)-5,6,7,8-tetrahydro-2,6-naphthyridin-1-yloxy)piperidine-1-carboxylate] it was 3710 nM; in that of `CC(C)OC(=O)N1CCC(N2CCC3CN(S(C)(=O)=O)CCC3C2=O)CC1` (centres unmarked) [Example A5, isopropyl 4-(6-(methylsulfonyl)-1-oxooctahydro-2,6-naphthyridin-2(1H)-yl)piperidine-1-carboxylate], 4360 nM; in that of `CC(C)OC(=O)N1CCC(CCCCn2ccc3c(c2=O)CCN(S(C)(=O)=O)C3)CC1` [Example A7, isopropyl 4-(4-(6-(methylsulfonyl)-1-oxo-5,6,7,8-tetrahydro-2,6-naphthyridin-2(1H)-yl)butyl)piperidine-1-carboxylate], 94 nM.
As for `CC(C)OC(=O)N1CCC(CCCCOC2=NCCC3CN(S(C)(=O)=O)CCC23)CC1` (centres unmarked) [Example A8, isopropyl 4-(4-(6-(methylsulfonyl)-3,4,4a,5,6,7,8,8a-octahydro-2,6-naphthyridin-1-yloxy)butyl)piperidine-1-carboxylate], the EC50 worked out at 137 nM.
`CC(C)OC(=O)N1CCC(CCCCOc2nccc3c2CCN(S(C)(=O)=O)C3)CC1` [Example A9, isopropyl 4-(4-(6-(methylsulfonyl)-5,6,7,8-tetrahydro-2,6-naphthyridin-1-yloxy)butyl)piperidine-1-carboxylate] yielded an EC50 of 191 nM.
As for `CS(=O)(=O)N1CCc2nc(CNCCc3cccc(Br)c3)ncc2C1` [Example B3, 2-(3-bromophenyl)-N-((6-(methylsulfonyl)-5,6,7,8-tetrahydropyrido[4,3-d]pyrimidin-2-yl)methyl)ethanamine], the EC50 came to 2440 nM.
For `CC1(OC(=O)N2CCC(CCOCc3ncc4c(n3)CCN(S(C)(=O)=O)C4)CC2)CC1` [Example C1, 1-Methylcyclopropyl 4-(2-((6-(methylsulfonyl)-5,6,7,8-tetrahydropyrido[4,3-d]pyrimidin-2-yl)methoxy)ethyl)piperidine-1-carboxylate], the EC50 stood at 514 nM.
Compound `CC1(OC(=O)N2CCC(CCCOc3ncc4c(n3)CCN(S(C)(=O)=O)C4)CC2)CC1` [Example D2, 1-Methylcyclopropyl 4-(3-(6-(methylsulfonyl)-5,6,7,8-tetrahydropyrido[4,3-d]pyrimidin-2-yloxy)propyl)piperidine-1-carboxylate] yielded an EC50 of 2 nM.
Compound `CCc1cnc(N2CCC(CCCOc3ncc4c(n3)CCN(S(C)(=O)=O)C4)CC2)nc1` [Example D3, 2-(3-(1-(5-Ethylpyrimidin-2-yl)piperidin-4-yl)propoxy)-6-(methylsulfonyl)-5,6,7,8-tetrahydropyrido[4,3-d]pyrimidine] displayed an EC50 of 4 nM.
`CC(C)c1noc(N2CCC(CCCNc3ncc4c(n3)CCN(S(C)(=O)=O)C4)CC2)n1` [Example D4, N-(3-(1-(3-isopropyl-1,2,4-oxadiazol-5-yl)piperidin-4-yl)propyl)-6-(methylsulfonyl)-5,6,7,8-tetrahydropyrido[4,3-d]pyrimidin-2-amine] came in with an EC50 of 6 nM.
In the case of `CCc1cnc(N2CCC(CCCNc3ncc4c(n3)CCN(S(C)(=O)=O)C4)CC2)nc1` [Example D5, N-(3-(1-(5-Ethylpyrimidin-2-yl)piperidin-4-yl)propyl)-6-(methylsulfonyl)-5,6,7,8-tetrahydropyrido[4,3-d]pyrimidin-2-amine] it was 7 nM.
`CC1(OC(=O)N2CCC(CCCNc3ncc4c(n3)CCN(S(C)(=O)=O)C4)CC2)CC1` [Example D7, 1-methylcyclopropyl 4-(3-(6-(methylsulfonyl)-5,6,7,8-tetrahydropyrido[4,3-d]pyrimidin-2-ylamino)propyl)piperidine-1-carboxylate]: the EC50 was 8 nM.
Under `CN(CCCC1CCN(C(=O)OC2(C)CC2)CC1)c1ncc2c(n1)CCN(S(C)(=O)=O)C2` [Example D8, 1-methylcyclopropyl 4-(3-(methyl(6-(methylsulfonyl)-5,6,7,8-tetrahydropyrido[4,3-d]pyrimidin-2-yl)amino)propyl)piperidine-1-carboxylate] stands 10 nM.
With `CCc1cnc(N2CCC(CCCOc3ncc4c(n3)CCN(S(=O)(=O)CCCO)C4)CC2)nc1` [Example D9, 3-(2-{3-[1-(5-ethylpyrimidin-2-yl)piperidin-4-yl]propoxy}-5H,6H,7H,8H-pyrido[4,3-d]pyrimidine-6-sulfonyl)propan-1-ol], the EC50 amounted to 5 nM.
For the compound `CCc1cnc(N2CCC(OCCOc3ncc4c(n3)CCN(S(C)(=O)=O)C4)CC2)nc1` [Example E1, 2-(2-(1-(5-ethylpyrimidin-2-yl)piperidin-4-yloxy)ethoxy)-6-(methylsulfonyl)-5,6,7,8-tetrahydropyrido[4,3-d]pyrimidine], the EC50 was determined as 212 nM.
The compound `CCc1cnc(N2CCC(CCCOc3ccc4c(n3)CCN(S(C)(=O)=O)C4)CC2)nc1` [Example F1, 2-(3-(1-(5-Ethylpyrimidin-2-yl)piperidin-4-yl)propoxy)-6-(methylsulfonyl)-5,6,7,8-tetrahydro-1,6-naphthyridine] returned an EC50 of 27 nM.
On to `CCc1cnc(N2CCC(COC3CN(c4ncc5c(n4)CCN(S(C)(=O)=O)C5)C3)CC2)nc1` [Example G1, 2-(3-((1-(5-Ethylpyrimidin-2-yl)piperidin-4-yl)methoxy)azetidin-1-yl)-6-(methylsulfonyl)-5,6,7,8-tetrahydropyrido[4,3-d]pyrimidine], for which the EC50 turned out to be 9 nM.
In the case of `CCc1cnc(N2CCC(COCC3CN(c4ncc5c(n4)CCN(S(C)(=O)=O)C5)C3)CC2)nc1` [Example G5] it was 666 nM.
`CC1(OC(=O)N2CCC(COC3CN(c4ncc5c(n4)CCN(S(C)(=O)=O)C5)C3)CC2)CC1` [Example G6] registered an EC50 of 28 nM.
`CC(C)(C)OC(=O)N1CC(OCC2CCN(c3ncc4c(n3)CCN(S(C)(=O)=O)C4)CC2)C1` [Example G7]: the EC50 is 22 nM.
The compound `CCc1cnc(N2CCC(COC3CCN(c4ncc5c(n4)CCN(S(C)(=O)=O)C5)CC3)CC2)nc1` [Example G9] displayed an EC50 of 317 nM.
The compound `CC(C)c1noc(N2CCC(COC3CN(c4ncc5c(n4)CCN(S(C)(=O)=O)C5)C3)CC2)n1` [Example G11] showed an EC50 of 170 nM.
On to `CCc1cnc(-c2ccc(CCCOc3ncc4c(n3)CCN(S(C)(=O)=O)C4)cc2)nc1` [Example G15, 5-ethyl-2-{4-[3-({6-methanesulfonyl-5H,6H,7H,8H-pyrido[4,3-d]pyrimidin-2-yl}oxy)propyl]phenyl}pyrimidine], for which the EC50 stood at 366 nM.
As for `CS(=O)(=O)N1CCc2nc(OCCCc3ccc(-n4cccn4)nc3)ncc2C1` [Example G16, 5-[3-({6-methanesulfonyl-5H,6H,7H,8H-pyrido[4,3-d]pyrimidin-2-yl}oxy)propyl]-2-(1H-pyrazol-1-yl)pyridine], the EC50 is 1020 nM.
With `CC1(OC(=O)N2CCC(Cc3cn(-c4ncc5c(n4)CCN(S(C)(=O)=O)C5)cn3)CC2)CC1` [Example G18, 1-methylcyclopropyl 4-[(1-{6-methanesulfonyl-5H,6H,7H,8H-pyrido[4,3-d]pyrimidin-2-yl}-1H-imidazol-4-yl)methyl]piperidine-1-carboxylate], the response was half-maximal at 122 nM (EC50).
Compound `CCc1cnc(N2CCc3c(cccc3OC3CN(c4ncc5c(n4)CCN(S(C)(=O)=O)C5)C3)C2)nc1` [Example I1, 2-(3-(2-(5-Ethylpyrimidin-2-yl)-1,2,3,4-tetrahydroisoquinolin-5-yloxy)azetidin-1-yl)-6-(methylsulfonyl)-5,6,7,8-tetrahydropyrido[4,3-d]pyrimidine] yielded an EC50 of 49 nM.
In the case of `C[C@H]1CN(C(=O)OC2(C)CC2)CC[C@H]1COC1CN(c2ncc3c(n2)CCN(S(C)(=O)=O)C3)C1` [Example J2, 1-methylcyclopropyl(3R,4R)-4-{[(1-{6-methanesulfonyl-5H,6H,7H,8H-pyrido[4,3-d]pyrimidin-2-yl}azetidin-3-yl)oxy]methyl}-3-methylpiperidine-1-carboxylate], the EC50 came to 174 nM.
